Values quoted from earlier work in patent publication US11452768B2, “Combination therapy with neoantigen vaccine” (The Broad Institute Inc., priority 2013, dated 2022).

Tests used:
[1] = system: advanced hormone refractory prostate cancer; settings: personalized vaccination combined with a low dose of estramustine
[2] = system: ovarian carcinoma; settings: in combination with NY-ESO-1 peptide vaccine and Montanide
[3] = system: gene expression in whole blood; settings: one single s.c. administration, 8 volunteers vs 4 placebo
[4] = system: advanced melanoma; settings: nivolumab and ipilimumab combined, intravenous
[5] = system: tumor types

C[C@]12CC[C@@H]3c4ccc(OC(=O)N(CCCl)CCCl)cc4CC[C@H]3[C@@H]1CC[C@@H]2O [estramustine]
Patients with a ≥50% decrease in serum prostate specific antigen (PSA) [1]: 54%

Polyinosinic-Polycytidylic Acid-poly-L-lysine Carboxymethylcellulose [poly-ICLC]
Fever (common adverse event, primary dose-limiting factor) (high doses ≥6 mg/m2): above 40 °C | Tolerability across all studies and spectrum of diseases (low dose (1-2 mg total dose)): well-tolerated | Patients showing induction of CD4+ and CD8+ T cell and antibody responses to the peptide [2]: > 90% | Differentially expressed genes versus placebo [3]: up to 212 genes

ipilimumab: monoclonal antibody that binds and blocks CTLA-4
Maximum doses associated with an acceptable level of adverse events [4]: 3 mg per kilogram

nivolumab: fully human IgG4 blocking monoclonal antibody against PD-1
Maximum doses associated with an acceptable level of adverse events [4]: 1 mg per kilogram | Objective responses ([5]; across tumor types): 16-31% | Durability of most responses ([5]; in vivo): > 1 year | Safety ([5]; in vivo): safe
